Experiments:
Assay in all cases: relative viability (nuclei count vs DMSO), 5 days (fraction); higher = more cells survive
NCI-H727 = system: NCI-H727
Method in brief: (§1)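 Relative viability was taken as the ratio of nuclei in treated wells to nuclei in vehicle wells. Lung cancer cell lines in 1536-well plates received compounds by pin tool one day after seeding, either one drug alone or a fixed anchor-drug dose plus five library-drug doses (not always all listed) in √10 steps. Nuclei were counted on 4× images after 5 days of treatment, and values are medians of duplicate plates.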

NCI-H1944 = system: NCI-H1944
Method in brief: as §1

NCI-H3122 = system: NCI-H3122
Method in brief: as §1

COR-L 105 = system: COR-L 105
Method in brief: as §1

PC-14 = system: PC-14
Method in brief: as §1

NCI-H661 = system: NCI-H661
Method in brief: as §1

NCI-H358 = system: NCI-H358
Method in brief: as §1

SK-LU-1 = system: SK-LU-1
Method in brief: as §1

ChaGo-K-1 = system: ChaGo-K-1
Method in brief: as §1

HCC-827 = system: HCC-827
Method in brief: as §1

LCLC-103H = system: LCLC-103H
Method in brief: as §1

HCC-366 = system: HCC-366
Method in brief: as §1

HCC-44 = system: HCC-44
Method in brief: as §1

NCI-H2342 = system: NCI-H2342
Method in brief: as §1

HCC-78 = system: HCC-78
Method in brief: as §1

UMC-11 = system: UMC-11
Method in brief: as §1

EPLC-272H = system: EPLC-272H
Method in brief: as §1

HCC-15 = system: HCC-15
Method in brief: as §1

NCI-H1792 = system: NCI-H1792
Method in brief: as §1

NCI-H1437 = system: NCI-H1437
Method in brief: as §1

SK-MES-1 = system: SK-MES-1
Method in brief: as §1

NCI-H2085 = system: NCI-H2085
Method in brief: as §1

COCC1(CO)C(=O)C2CCN1CC2 (stereo unspecified) [PRIMA-1MET] + O=C(c1cc(Cc2n[nH]c(=O)c3ccccc23)ccc1F)N1CCN(C(=O)C2CC2)CC1 [Olaparib] (partner 8 µM)
relative viability (NCI-H727; first compound 0.2 µM): 0.6
relative viability (NCI-H727; first compound 0.6325 µM): 0.676
relative viability (NCI-H727; first compound 6.325 µM): 0.527
relative viability (NCI-H727; first compound 20 µM): 0.47
relative viability (NCI-H1944; first compound 0.2 µM): 0.479
relative viability (NCI-H1944; first compound 0.6325 µM): 0.393
relative viability (NCI-H1944; first compound 2 µM): 0.415
relative viability (NCI-H1944; first compound 6.325 µM): 0.398
relative viability (NCI-H1944; first compound 20 µM): 0.457
relative viability (NCI-H3122; first compound 0.2 µM): 0.661
relative viability (NCI-H3122; first compound 0.6325 µM): 0.55
relative viability (NCI-H3122; first compound 2 µM): 0.614
relative viability (NCI-H3122; first compound 6.325 µM): 0.698
relative viability (NCI-H3122; first compound 20 µM): 0.621
relative viability (COR-L 105; first compound 0.2 µM): 0.687
relative viability (COR-L 105; first compound 0.6325 µM): 0.685
relative viability (COR-L 105; first compound 2 µM): 0.713
relative viability (COR-L 105; first compound 6.325 µM): 0.688
relative viability (COR-L 105; first compound 20 µM): 0.458
relative viability (PC-14; first compound 0.2 µM): 0.261
relative viability (PC-14; first compound 0.6325 µM): 0.208
relative viability (PC-14; first compound 2 µM): 0.24
relative viability (PC-14; first compound 6.325 µM): 0.275
relative viability (PC-14; first compound 20 µM): 0.209
relative viability (NCI-H661; first compound 0.2 µM): 0.827
relative viability (NCI-H661; first compound 0.6325 µM): 0.721
relative viability (NCI-H661; first compound 2 µM): 0.76
relative viability (NCI-H661; first compound 6.325 µM): 0.753
relative viability (NCI-H661; first compound 20 µM): 0.751
relative viability (NCI-H358; first compound 0.2 µM): 0.623
relative viability (NCI-H358; first compound 0.6325 µM): 0.555
relative viability (NCI-H358; first compound 2 µM): 0.601
relative viability (NCI-H358; first compound 6.325 µM): 0.635
relative viability (NCI-H358; first compound 20 µM): 0.553
relative viability (SK-LU-1; first compound 0.2 µM): 0.504
relative viability (SK-LU-1; first compound 0.6325 µM): 0.494
relative viability (SK-LU-1; first compound 2 µM): 0.365
relative viability (SK-LU-1; first compound 6.325 µM): 0.455
relative viability (SK-LU-1; first compound 20 µM): 0.237
relative viability (ChaGo-K-1; first compound 0.2 µM): 0.461
relative viability (ChaGo-K-1; first compound 0.6325 µM): 0.407
relative viability (ChaGo-K-1; first compound 2 µM): 0.437
relative viability (ChaGo-K-1; first compound 6.325 µM): 0.426
relative viability (ChaGo-K-1; first compound 20 µM): 0.318
relative viability (HCC-827; first compound 0.2 µM): 0.675
relative viability (HCC-827; first compound 0.6325 µM): 0.675
relative viability (HCC-827; first compound 2 µM): 0.587
relative viability (HCC-827; first compound 6.325 µM): 0.684
relative viability (HCC-827; first compound 20 µM): 0.627
relative viability (LCLC-103H; first compound 0.2 µM): 0.841
relative viability (LCLC-103H; first compound 0.6325 µM): 0.717
relative viability (LCLC-103H; first compound 2 µM): 0.711
relative viability (LCLC-103H; first compound 6.325 µM): 0.8
relative viability (LCLC-103H; first compound 20 µM): 0.703
relative viability (HCC-366; first compound 0.2 µM): 0.396
relative viability (HCC-366; first compound 0.6325 µM): 0.346
relative viability (HCC-366; first compound 2 µM): 0.328
relative viability (HCC-366; first compound 6.325 µM): 0.34
relative viability (HCC-366; first compound 20 µM): 0.0865
relative viability (HCC-44; first compound 0.2 µM): 1.06
relative viability (HCC-44; first compound 0.6325 µM): 0.969
relative viability (HCC-44; first compound 2 µM): 1.12
relative viability (HCC-44; first compound 6.325 µM): 0.969
relative viability (HCC-44; first compound 20 µM): 0.945
relative viability (NCI-H2342; first compound 0.2 µM): 0.414
relative viability (NCI-H2342; first compound 0.6325 µM): 0.432
relative viability (NCI-H2342; first compound 6.325 µM): 0.395
relative viability (NCI-H2342; first compound 20 µM): 0.337
relative viability (HCC-78; first compound 0.2 µM): 1
relative viability (HCC-78; first compound 0.6325 µM): 1.06
relative viability (HCC-78; first compound 2 µM): 0.573
relative viability (HCC-78; first compound 6.325 µM): 0.881
relative viability (HCC-78; first compound 20 µM): 0.338
relative viability (UMC-11; first compound 0.2 µM): 0.526
relative viability (UMC-11; first compound 0.6325 µM): 0.312
relative viability (UMC-11; first compound 2 µM): 0.376
relative viability (UMC-11; first compound 6.325 µM): 0.417
relative viability (UMC-11; first compound 20 µM): 0.406
relative viability (EPLC-272H; first compound 0.2 µM): 0.655
relative viability (EPLC-272H; first compound 0.6325 µM): 0.89
relative viability (EPLC-272H; first compound 2 µM): 0.911
relative viability (EPLC-272H; first compound 6.325 µM): 0.694
relative viability (EPLC-272H; first compound 20 µM): 0.0737
relative viability (HCC-15; first compound 0.2 µM): 0.789
relative viability (HCC-15; first compound 0.6325 µM): 0.772
relative viability (HCC-15; first compound 2 µM): 0.746
relative viability (HCC-15; first compound 6.325 µM): 0.668
relative viability (HCC-15; first compound 20 µM): 0.628
relative viability (NCI-H1792; first compound 0.2 µM): 0.899
relative viability (NCI-H1792; first compound 6.325 µM): 0.444
relative viability (NCI-H1792; first compound 20 µM): 0.457
relative viability (NCI-H1437; first compound 0.2 µM): 0.641
relative viability (NCI-H1437; first compound 0.6325 µM): 0.556
relative viability (NCI-H1437; first compound 2 µM): 0.627
relative viability (NCI-H1437; first compound 6.325 µM): 0.65
relative viability (NCI-H1437; first compound 20 µM): 0.614
relative viability (SK-MES-1; first compound 0.2 µM): 0.852
relative viability (SK-MES-1; first compound 0.6325 µM): 0.66
relative viability (SK-MES-1; first compound 2 µM): 0.779
relative viability (SK-MES-1; first compound 6.325 µM): 0.622
relative viability (SK-MES-1; first compound 20 µM): 0.622
relative viability (NCI-H2085; first compound 0.2 µM): 0.837
relative viability (NCI-H2085; first compound 0.6325 µM): 0.817
relative viability (NCI-H2085; first compound 2 µM): 0.805
relative viability (NCI-H2085; first compound 6.325 µM): 0.862
relative viability (NCI-H2085; first compound 20 µM): 0.191

Reference: the supplement of paper PMC10307832
